Like-named read-outs stand apart in the source and are kept apart here.
What was measured:
[1] = cited from earlier work
[2] = Treatment of migraine headache symptoms (pain phase) with an inhaled plume of particles from an active mesh nebulizer; assay type: in vivo, patient (adult)
Experimental: In a non-limiting example, an adult with a history of chronic migraine headaches was treated for migraine headache symptoms during the pain phase using an inhaled plume of particles from an active mesh nebulizer as described herein, and as described in U.S. patent application Ser. No. 16/836,485, titled “NEBULIZER FOR TIME-REGULATED DELIVERY”. The person was provided with an active mesh nebulizer containing a solution of sumatriptan succinate in water at 0.1996 weight % (wt %) [e.g., 4 mg sumatriptan succinate in 2 grams of water, such that (0.004 g sumatriptan succinate/2.004 g solution)*100=0.1996 wt % sumatriptan succinate] which produced a plume of particles where over 95% of the particles have individual particle diameters ranging from about 0.5 μm to about 3.0 μm. The active mesh nebulizer was configured to produce a plume of particles by nebulizing the sumatriptan succinate solution at a rate of 0.2 milliliters per minute (ml/min) for one minute, resulting in a patient dose for a first inhalation session (e.g., six 10-second inhaled plume pulses) of not more than 4 mg sumatriptan succinate.
The person had indicated in their medical history that they had regularly experienced migraine headache symptoms, at a frequency of about 3-4 episodes per week, over several months prior to the treatment.

Structure (SMILES) | relief time (patient relief) ([1]; intra-nasal delivery, according to theory and belief) | relief time (patient relief) ([1]; sub-cutaneous delivery, after injection) | migraine headache symptoms, self-evaluated after treatment ([2]; one adult with chronic migraine, inhaled, 0.1996 wt % solution in water, six 10-second plume pulses, not more than 4 mg, evaluated after waiting 5 minutes) | remission after treatment ([2]; same patient, about 3-4 episodes per week before treatment) | relief time (symptom relief) ([1]; sub-lingual delivery, according to theory and belief)
CNS(=O)(=O)Cc1ccc2[nH]cc(CCN(C)C)c2c1 [sumatriptan succinate] | 30 to 60 min | 60 to 90 min | completely abated | more than seven days | 
CN(C)CCc1c[nH]c2ccc(C[C@H]3COC(=O)N3)cc12 [zolmitriptan] |  |  |  |  | ≤ 30 min

Source: US11364225B2, “Pharmaceutical formulation for treating symptoms of migraine and cluster headaches, and method of using the same” (BN INTELLECTUAL PROPERTIES, INC., priority 2019, dated 2022)
